Source: ChEMBL document CHEMBL1926626, “Design and synthesis of benzo[c,d]indolone-pyrrolobenzodiazepine conjugates as potential anticancer agents” (Bioorg Med Chem, 2012)
Active and inactive are the calls of the source. The rule behind the calls is not given here.

Key:
Nucleic Acid = assay: Binding affinity to calf thymus DNA assessed as change in melting temperature at compound:DNA molar ratio of 1:5 after 18 hrs at 37 degC by thermal denaturation assay (RVb = 0.3 to 3.1 degC); assay type: nucleic-acid assay; settings: Bos taurus
COLO 205 = assay: Anticancer activity against human COLO205 cells after 48 hrs by MTT assay; assay type: functional, cell-based; settings: COLO 205, 48 h
HEK293 = assay: Cytotoxicity activity against human HEK293 cells after 48 hrs by MTT assay; assay type: cell-based; settings: hek293, 48 h
A549 [1] = assay: Anticancer activity against human A549 cells after 48 hrs by MTT assay; settings: A549, 48 h
A-431 = assay: Anticancer activity against human A431 cells after 48 hrs by MTT assay; assay type: functional, cell-based; settings: A-431, 48 h
PC-3 = assay: Anticancer activity against human PC3 cells after 48 hrs by MTT assay; assay type: functional, cell-based; settings: PC-3, 48 h
A549 [2] = assay: Induction of cell cycle arrest in human A549 cells assessed as accumulation at S phase at 1 uM after 48 hrs by propidium iodide staining-based flow cytometry (reference value: 13.31 %); assay type: functional
A549 [3] = assay: Induction of apoptosis in human A549 cells assessed as activation of caspase-3 activity at 1 to 2 uM after 48 hrs by ELISA relative to control; assay type: functional
A549 [4] = assay: Induction of apoptosis in human A549 cells assessed as early apoptotic cells at 1 uM after 48 hrs by annexin V-FITC and propidium iodide staining method (RVb = 0.01 %); assay type: functional
A549 [5] = assay: Induction of apoptosis in human A549 cells assessed as late apoptotic cells at 1 uM after 48 hrs by annexin V-FITC and propidium iodide staining method (RVb = 0.02 %); assay type: functional
A549 [6] = assay: Induction of cell cycle arrest in human A549 cells assessed as accumulation at S phase at 2 uM after 48 hrs by propidium iodide staining-based flow cytometry (reference value: 13.31 %); assay type: functional
A549 [7] = assay: Induction of cell cycle arrest in human A549 cells assessed as accumulation at G2 phase at 1 uM after 48 hrs by propidium iodide staining-based flow cytometry (reference value: 9.23 %); assay type: functional
A549 [8] = assay: Induction of apoptosis in human A549 cells assessed as early apoptotic cells at 2 uM after 48 hrs by annexin V-FITC and propidium iodide staining method (RVb = 0.01 %); assay type: functional
A549 [9] = assay: Induction of apoptosis in human A549 cells assessed as late apoptotic cells at 2 uM after 48 hrs by annexin V-FITC and propidium iodide staining method (RVb = 0.02 %); assay type: functional
A549 [10] = assay: Induction of cell cycle arrest in human A549 cells assessed as accumulation at G1 phase at 2 uM after 48 hrs by propidium iodide staining-based flow cytometry (reference value: 76.31 %); assay type: functional
A549 [11] = assay: Induction of apoptosis in human A549 cells assessed as necrotic cells at 1 uM after 48 hrs by annexin V-FITC and propidium iodide staining method (RVb = 0.04 %); assay type: functional
A549 [12] = assay: Induction of cell cycle arrest in human A549 cells assessed as accumulation at Sub G1 phase at 1 uM after 48 hrs by propidium iodide staining-based flow cytometry (reference value: 0.67 %); assay type: functional
A549 [13] = assay: Induction of apoptosis in human A549 cells assessed as viable cells at 2 uM after 48 hrs by annexin V-FITC and propidium iodide staining method (RVb = 99.93 %); assay type: functional; settings: A549, 48 h, read-out: Activity
A549 [14] = assay: Induction of cell cycle arrest in human A549 cells assessed as accumulation at G2 phase at 2 uM after 48 hrs by propidium iodide staining-based flow cytometry (reference value: 9.23 %); assay type: functional
A549 [15] = assay: Induction of cell cycle arrest in human A549 cells assessed as accumulation at Sub G1 phase at 2 uM after 48 hrs by propidium iodide staining-based flow cytometry (reference value: 0.67 %); assay type: functional
A549 [16] = assay: Induction of apoptosis in human A549 cells assessed as nuclear condensation at 2 uM after 48 hrs by Hoechst 33258 staining-based fluorescence microscopy relative to control; assay type: functional, cell-based
A549 [17] = assay: Induction of apoptosis in human A549 cells assessed as oligoneucleosomal DNA fragmentation at 1 to 2 uM after 48 hrs by agarose gel electrophoresis technique; assay type: functional, cell-based
A549 [18] = assay: Induction of cell cycle arrest in human A549 cells assessed as accumulation at G1 phase at 1 uM after 48 hrs by propidium iodide staining-based flow cytometry (reference value: 76.31 %); assay type: functional
A549 [19] = assay: Induction of cell cycle arrest in human A549 cells assessed as accumulation at subG1 phase after 48 hrs by propidium iodide staining-based flow cytometry; assay type: functional
A549 [20] = assay: Induction of apoptosis in human A549 cells assessed as viable cells at 1 uM after 48 hrs by annexin V-FITC and propidium iodide staining method (RVb = 99.93 %); assay type: functional; settings: A549, 48 h, read-out: Activity
A549 [21] = assay: Induction of apoptosis in human A549 cells assessed as necrotic cells at 2 uM after 48 hrs by annexin V-FITC and propidium iodide staining method (RVb = 0.04 %); assay type: functional
A549 [22] = assay: Induction of cell cycle arrest in human A549 cells assessed as decrease in accumulation at G0/G1 phase after 48 hrs by propidium iodide staining-based flow cytometry; assay type: functional

## COc1cc2c(cc1OCCCCCCn1c(=C(C#N)C#N)c3cccc4cccc1c43)N=C[C@@H]1CCCN1C2=O
Nucleic Acid
  ΔTm: 2 °C
COLO 205
  IC50: 16.7 µM
HEK293
  Activity: Non-toxic
A549 [1]
  IC50: 18.9 µM
A-431
  IC50: 1.25 µM
PC-3
  IC50: 19.3 µM

## COc1cc2c(cc1OCCCCN1c3cccc4cccc(c34)S1(=O)=O)N=C[C@@H]1CCCN1C2=O
Nucleic Acid
  ΔTm: 3.9 °C
COLO 205
  IC50: 3.71 µM
HEK293
  Activity: Non-toxic
A549 [1]
  IC50: 19.6 µM
A-431
  IC50: 3.34 µM
PC-3
  IC50: 14.9 µM

## COc1cc2c(cc1OCCCN1C(=O)c3cccc4cccc1c34)N=C[C@@H]1CCCN1C2=O
Nucleic Acid
  ΔTm: 3.2 °C
COLO 205
  IC50: 8.65 µM
HEK293
  Activity: Non-toxic
A549 [1]
  IC50: 13.8 µM
A-431
  IC50: 3.04 µM
PC-3
  IC50: 7.67 µM

## COc1cc2c(cc1OCCCCCCN1c3cccc4cccc(c34)S1(=O)=O)N=C[C@@H]1CCCN1C2=O
A549 [2]
  Activity: 15.34%
A549 [3]
  fold change (FC): 4
A549 [4]
  Activity: 32.55%
Nucleic Acid
  ΔTm: 7.6 °C
A549 [5]
  Activity: 24.94%
A549 [6]
  Activity: 9.93%
COLO 205
  IC50: 1.21 µM
A549 [7]
  Activity: 3.75%
A549 [8]
  Activity: 26.07%
A549 [9]
  Activity: 42.4%
HEK293
  Activity: Non-toxic
A549 [10]
  Activity: 20.48%
A549 [11]
  Activity: 1.93%
A549 [12]
  Activity: 42.83%
A549 [13]
  viability at 2 µM: 28.8%
A549 [14]
  Activity: 0.37%
A549 [15]
  Activity: 66.94%
A549 [16]
  Activity: Active
A549 [17]
  Activity: Active
A549 [1]
  IC50: 1.05 µM
A549 [18]
  Activity: 36.77%
A549 [19]
  Activity: Dose-dependent effect
A549 [20]
  viability at 1 µM: 40.6%
A549 [21]
  Activity: 2.77%
A-431
  IC50: 1.72 µM
A549 [22]
  Activity: Dose-dependent effect
PC-3
  IC50: 1.52 µM

## COc1cc2c(cc1OCCCCCN1c3cccc4cccc(c34)S1(=O)=O)N=C[C@@H]1CCCN1C2=O
Nucleic Acid
  ΔTm: 5.6 °C
COLO 205
  IC50: 15.1 µM
HEK293
  Activity: Non-toxic
A549 [1]
  IC50: 14.4 µM
A-431
  IC50: 4.67 µM
PC-3
  IC50: 9.7 µM

## COc1cc2c(cc1OCCCN1c3cccc4cccc(c34)S1(=O)=O)N=C[C@@H]1CCCN1C2=O
Nucleic Acid
  ΔTm: 4.9 °C
COLO 205
  IC50: 7.66 µM
HEK293
  Activity: Non-toxic
A549 [1]
  IC50: 10 µM
A-431
  IC50: 9.56 µM
PC-3
  IC50: 9.8 µM

## COc1cc2c(cc1OCCCn1c(=C(C#N)C#N)c3cccc4cccc1c43)N=C[C@@H]1CCCN1C2=O
Nucleic Acid
  ΔTm: 3.4 °C
COLO 205
  IC50: 6.1 µM
HEK293
  Activity: Non-toxic
A549 [1]
  IC50: 4.86 µM
A-431
  IC50: 4.67 µM
PC-3
  IC50: 17.9 µM

## COc1cc2c(cc1OCCCCN1C(=O)c3cccc4cccc1c34)N=C[C@@H]1CCCN1C2=O
Nucleic Acid
  ΔTm: 4 °C
COLO 205
  IC50: 3.31 µM
HEK293
  Activity: Non-toxic
A549 [1]
  IC50: 9.8 µM
A-431
  IC50: 1.34 µM
PC-3
  IC50: 3.23 µM

## COc1cc2c(cc1OCCCCn1c(=C(C#N)C#N)c3cccc4cccc1c43)N=C[C@@H]1CCCN1C2=O
Nucleic Acid
  ΔTm: 2.7 °C
COLO 205
  IC50: 2.95 µM
HEK293
  Activity: Non-toxic
A549 [1]
  IC50: 25.5 µM
A-431
  IC50: 2.5 µM
PC-3
  IC50: 14.8 µM

## COc1cccc2c1C(=O)c1c(O)c3c(c(O)c1C2=O)C[C@@](O)(C(=O)CO)C[C@@H]3O[C@H]1C[C@H](N)[C@H](O)[C@H](C)O1 [DOXORUBICIN]
COLO 205
  IC50: 1.69 µM
A-431
  IC50: 0.03 µM
PC-3
  IC50: 2.51 µM

## COc1cc2c(cc1O)N=C[C@@H]1CCCN1C2=O
A549 [2]
  Activity: 38.93%
A549 [4]
  Activity: 39.1%
Nucleic Acid
  ΔTm: 0.7 °C
A549 [5]
  Activity: 17.73%
COLO 205
  IC50: 0.86 µM
A549 [7]
  Activity: 8.57%
A549 [11]
  Activity: 1.91%
A549 [12]
  Activity: 10.15%
A549 [16]
  Activity: Active
A549 [1]
  IC50: 1.11 µM
A549 [18]
  Activity: 40.78%
A549 [20]
  viability at 1 µM: 41.2%
A-431
  IC50: 1.65 µM
PC-3
  IC50: 1.19 µM

## COc1cc2c(cc1OCCCCCn1c(=C(C#N)C#N)c3cccc4cccc1c43)N=C[C@@H]1CCCN1C2=O
Nucleic Acid
  ΔTm: 2.8 °C
COLO 205
  IC50: 25.9 µM
HEK293
  Activity: Non-toxic
A549 [1]
  IC50: 5.86 µM
A-431
  IC50: 4.46 µM
PC-3
  IC50: 36.5 µM

## COc1cc2c(cc1OCCCCCN1C(=O)c3cccc4cccc1c34)N=C[C@@H]1CCCN1C2=O
Nucleic Acid
  ΔTm: 5.2 °C
COLO 205
  IC50: 9.76 µM
HEK293
  Activity: Non-toxic
A549 [1]
  IC50: 21.9 µM
A-431
  IC50: 3.71 µM
PC-3
  IC50: 15.5 µM

## COc1cc2c(cc1OCCCCCCN1C(=O)c3cccc4cccc1c34)N=C[C@@H]1CCCN1C2=O
Nucleic Acid
  ΔTm: 2.1 °C
COLO 205
  IC50: 14.3 µM
HEK293
  Activity: Non-toxic
A549 [1]
  IC50: 32.7 µM
A-431
  IC50: 3.31 µM
PC-3
  IC50: 4.89 µM
